System: nocturnal seizures
Test: Clinical seizure control in affected ADNFLE family members
Assay type: in vivo, human
From the text: The proband (V-1; FIG. 1), a person of normal intellect, presented with nocturnal seizures. These would be typified by their waking from sleep with a sensation of difficulty in breathing. This would last a few seconds only, following which they would appear to be holding their breath and would make grunting noises. Sometimes they would recover quickly which would be followed by crying or screaming. On other occasions this would progress to tonic extension of their left arm and curling up into a ball. This would last up to a few minutes and the whole episode would be repeated stereotypically at around 15 minute intervals throughout the night. They would have a clear recollection of all of the above events. Such events would also occur during daytime sleep. […] Currently, they are seizure free on a combination of phenytoin and topiramate. In this family there are nine other affected members spanning four generations.

[1] = proband V-1, combination of phenytoin and topiramate

Compound | symptom control (other affected family members) | seizure control (proband V-1, later relapsed) | seizure control (family member II-2) | seizure control [1]
NC(=O)N1c2ccccc2C=Cc2ccccc21 [carbamazepine] | easily controlled | initially well controlled |  | 
O=C1NC(=O)C(c2ccccc2)(c2ccccc2)N1 [phenytoin] |  |  | continues to have occasional seizures | seizure free
CC1(C)O[C@@H]2[C@@H](CO[C@@]3(COS(N)(=O)=O)OC(C)(C)O[C@@H]23)O1 [topiramate] |  |  |  | seizure free
